In patent CN117567270A, “一种醇胺-壬二酸超分子离子盐及其制备和应用” (Jiangnan University, priority 2023, dated 2024):

Legend:
[1] = system: Pseudomonas aeruginosa [铜绿假单胞菌]; assay: Antibacterial challenge test (single inoculation, 28 d), Pseudomonas aeruginosa; type: cell-based; conditions: for increase of bacterial count: 14~28 d; for sterilising effect (compared with control group): 7 d, control group: azelaic acid neutralised to pH 7.0
[2] = system: Escherichia coli [大肠埃希氏菌]; assay: Antibacterial challenge test (single inoculation, 28 d), Escherichia coli; type: cell-based; conditions: for increase of bacterial count: 14~28 d; for sterilising effect (compared with control group): 7 d, control group: azelaic acid neutralised to pH 7.0
[3] = system: human skin stratum corneum [人体皮肤角质层]; assay: Moisturising performance test (skin water content by capacitance method); type: in vivo; conditions: toner with azelaic acid mass fraction 0.2%; for water content of human skin: 1 h after application; for moisturising ability (compared with control group): long time; for water loss of skin (compared with control group): longer time; for water replenishing ability (compared with control group): short time
[4] = system: Escherichia coli, Pseudomonas aeruginosa and Staphylococcus aureus [大肠埃希氏菌、铜绿假单胞菌和金黄色葡萄球菌]; assay: Antibacterial challenge test, overall result; type: cell-based; conditions: for antibacterial challenge test passed: criterion: log decline at 14 d not less than 2.0 and no rise 14~28 d
[5] = background statement; cited from earlier work
[6] = system: Staphylococcus aureus [金黄色葡萄球菌]; assay: Antibacterial challenge test (single inoculation, 28 d), Staphylococcus aureus; type: cell-based; conditions: 14~28 d
[7] = High/low temperature cycling of the salt and its water dilutions; type: physicochemical; conditions: 15 cycles -5~40℃; undiluted and diluted 1, 5, 10, 20, 50 times with water
[8] = Storage stability of the salt and its water dilutions; type: physicochemical; conditions: 3 months, undiluted and diluted 1, 5, 10, 20, 50 times with water

Compound | increase of bacterial count [1] | increase of bacterial count [2] | water content of human skin [3] | antibacterial challenge test passed [4] | solubility in water [5] | increase of bacterial count [6] | sterilising effect (compared with control group) [1] | sterilising effect (compared with control group) [2] | moisturising ability (compared with control group) [3] | water loss of skin (compared with control group) [3] | water replenishing ability (compared with control group) [3] | short-term antibacterial effect compared with azelaic acid [4] | precipitation of insolubles and colour change [7] | precipitation of insolubles and colour change ([8]; 45℃ oven) | precipitation of insolubles and colour change ([8]; room temperature, natural light)
O=C(O)CCCCCCCC(=O)O [壬二酸, reference compound] | 不增加 | 不增加 | 明显上升 | 通过抗菌挑战测试 | 很低 | 不增加 | – | – | – | – | – | – | – | – | –
O=C(O)CCCCCCCC(=O)O.OCCN(CCO)CCO.OCCN(CCO)CCO [实施例1, 三乙醇胺-壬二酸超分子离子盐] | 不增加 | 不增加 | 明显上升 | – | – | 不增加 | 更加优异 | 更加优异 | 更加优异 | 较为缓慢 | 更加优异 | 优于壬二酸 | – | – | –
NCC(O)CO.NCC(O)CO.O=C(O)CCCCCCCC(=O)O [实施例2, 氨基丙二醇-壬二酸超分子离子盐] | 不增加 | 不增加 | 明显上升 | 通过抗菌挑战测试 | – | 不增加 | 更加优异 | 更加优异 | 更加优异 | 较为缓慢 | 更加优异 | 优于壬二酸 | 无不溶物析出且无颜色变化 | 无不溶物析出且无颜色变化 | 无不溶物析出且无颜色变化
CC(C)(N)CO.O=C(O)CCCCCCCC(=O)O [实施例3, 氨甲基丙醇-壬二酸超分子离子盐] | 不增加 | 不增加 | 明显上升 | 通过抗菌挑战测试 | – | 不增加 | 更加优异 | 更加优异 | 更加优异 | 较为缓慢 | 更加优异 | 优于壬二酸 | – | – | –
